The results in this text go back to patent US12479843B2, “Spiro ring-containing quinazoline compounds” (WIGEN BIOMEDICINE TECHNOLOGY (SHANGHAI) CO., LTD., priority 2019, dated 2025).

One experiment has as its system pERK level in H358 cells. In words: pERK and ERK protein content assay in H358 cells (ELISA). The experiment is classed as cell-based. The conditions noted are these: Homo sapiens, NCI-H358, compound 1 μM, 24 h, pERK/ERK ratio compared with DMSO group, read-out: Inhibition rate (%) of pERK level. On the procedure: H358 cells were seeded in a 24-well plate. After one day of growth, a test compound (at a concentration of 1 μM) was added. After 24 h of action of the compound, the cells were lysed, and the cell lysate was transferred to a 96-well ELISA plate. The levels of pERK and ERK in the lysate were measured using an ELISA kit (abcam 176660). The ratio of pERK to ERK was calculated and compared with that of the DMSO group, and the percentage of inhibition of pERK activity by the compound was calculated.
A general note: An ELISA detects its analyte on a solid surface through an enzyme-linked reagent.

Another experiment concerns H358 cells. In words: Antiproliferative activity against H358 cells (Cell Titer Glow, ultra-low attachment plate). The experiment is classed as cell-based. The conditions noted are these: Homo sapiens, NCI-H358, 72 h, 96-well ultra-low attachment plate, three days after addition of compound, Cell Titer Glow. On the procedure: 2500 H358 cells were seeded in a 96-well ultra-low attachment plate (corning, 7007). After one day of growth, a serially diluted compound (a maximum concentration of 5 μM, 5-fold dilution, a total of five doses) was added. Three days after the addition of the compound, Cell Titer Glow (Promega, G9681) was added to evaluate pellet growth, and the IC50 value was calculated.

By inhibition is commonly meant the percentage by which the read-out fell short of the control. Usually IC50 stands for the midpoint of a concentration-inhibition curve. The low end stands for greater potency, the high end for weaker potency.

With `C=CC(=O)N1CC2(CCN(c3nc(OC4CCN(CCOC)CC4)nc4c(OCC(F)(F)F)c(-c5cc(O)ccc5Cl)c(C5CC5)cc34)CC2)C1` [Compound 58], in the experiment with pERK level in H358 cells, the inhibition at 1 µM is above 90%. In addition, the concentration for half-maximal inhibition (IC50) with H358 cells was below 300 nM.
On the same counts, the results for `C=CC(=O)N1CC2(CCN(c3nc(OC4CCN(CCOC)CC4)nc4c(OCC(F)(F)F)c(-c5c(O)ccc6ccccc56)c(C5CC5)cc34)CC2)C1` [Compound 59] are above 90% and below 300 nM.
On the same counts, the results for `C=CC(=O)N1CC2(CCN(c3nc(OC4CCN(CCOC)CC4)nc4c(OCC(F)(F)F)c(-c5cc(O)cc6ccccc56)c(C5CC5)cc34)CC2)C1` [Compound 60] are above 90% and below 300 nM.
As to `C=C(F)C(=O)N1CC2(CCN(c3nc(OC4CCN(C)CC4)nc4c(OCC(F)(F)F)c(-c5c(C)ccc6[nH]ncc56)c(C5CC5)cc34)CC2)C1` [Compound 61], in the experiment on pERK level in H358 cells, the inhibition at 1 µM was above 90%. In the experiment with H358 cells, the IC50 was below 300 nM.
The matching figures for `C=C(F)C(=O)N1CC2(CCN(c3nc(OC4CCN(C5COC5)CC4)nc4c(OCC(F)(F)F)c(-c5c(C)ccc6[nH]ncc56)c(C5CC5)cc34)CC2)C1` [Compound 62]: above 90% and below 300 nM.
The matching figures for `C=C(F)C(=O)N1CC2(CCN(c3nc(OC4CCN(CCCOC)CC4)nc4c(OCC(F)(F)F)c(-c5c(C)ccc6[nH]ncc56)c(C5CC5)cc34)CC2)C1` [Compound 63]: above 90% and below 300 nM.
The matching figures for `C=C(F)C(=O)N1CC2(CCN(c3nc(O[C@H]4CCN(C)C4)nc4c(OCC(F)(F)F)c(-c5c(C)ccc6[nH]ncc56)c(C5CC5)cc34)CC2)C1` [Compound 64]: 50 to 90% and 300 to 1000 nM.
Take `C=C(F)C(=O)N1CC2(CCN(c3nc(O[C@H]4CCN(CCOC)C4)nc4c(OCC(F)(F)F)c(-c5c(C)ccc6[nH]ncc56)c(C5CC5)cc34)CC2)C1` [Compound 65]: in the experiment on pERK level in H358 cells, the inhibition at 1 µM is above 90%. In the experiment on H358 cells, this compound showed a half-inhibitory concentration (IC50) below 300 nM.
On the same counts, the results for `C=C(F)C(=O)N1CC2(CCN(c3nc(O[C@H]4CCN(C5COC5)C4)nc4c(OCC(F)(F)F)c(-c5c(C)ccc6[nH]ncc56)c(C5CC5)cc34)CC2)C1` [Compound 66] are 50 to 90% and 300 to 1000 nM.
The matching figures for `C=CC(=O)N1CC2(CCN(c3nc(N4CC5(COC5)C4)nc4c(OCC(F)(F)F)c(-c5c(C)ccc6[nH]ncc56)c(C5CC5)cc34)CC2)C1` [Compound 67]: 50 to 90% and 300 to 1000 nM.
As for `C=C(F)C(=O)N1CC2(CCN(c3nc(N4CC5(COC5)C4)nc4c(OCC(F)(F)F)c(-c5c(C)ccc6[nH]ncc56)c(C5CC5)cc34)CC2)C1` [Compound 68], the inhibition at 1 µM with pERK level in H358 cells was in the range of 50 to 90%. In the experiment on H358 cells, the IC50 lay within 300 to 1000 nM.
The matching figures for `C=CC(=O)N1CC2(CCN(c3nc(N4CC5(CN(C)C5)C4)nc4c(OCC(F)(F)F)c(-c5c(C)ccc6[nH]ncc56)c(C5CC5)cc34)CC2)C1` [Compound 69]: above 90% and below 300 nM.
On the same counts, the results for `C=C(F)C(=O)N1CC2(CCN(c3nc(N4CC5(CN(C)C5)C4)nc4c(OCC(F)(F)F)c(-c5c(C)ccc6[nH]ncc56)c(C5CC5)cc34)CC2)C1` [Compound 70] are above 90% and 300 to 1000 nM.
On the same counts, the results for `C=CC(=O)N1CC2(CCN(c3nc(N4CC5(CN(CCOC)C5)C4)nc4c(OCC(F)(F)F)c(-c5c(C)ccc6[nH]ncc56)c(C5CC5)cc34)CC2)C1` [Compound 71] are above 90% and below 300 nM.
In the case of `C=C(F)C(=O)N1CC2(CCN(c3nc(N4CC5(CN(CCOC)C5)C4)nc4c(OCC(F)(F)F)c(-c5c(C)ccc6[nH]ncc56)c(C5CC5)cc34)CC2)C1` [Compound 72], in the experiment with pERK level in H358 cells, the inhibition at 1 µM is above 90%. Moreover, the half-inhibitory concentration (IC50) in the experiment with H358 cells was below 300 nM.
Consider `C=CC(=O)N1CC2(CCN(c3nc(N4CC5(CCN(C)C5)C4)nc4c(OCC(F)(F)F)c(-c5c(C)ccc6[nH]ncc56)c(C5CC5)cc34)CC2)C1` [Compound 73], for which, in the experiment on pERK level in H358 cells, the inhibition at 1 µM is above 90%. The half-maximal inhibitory concentration (IC50) in the experiment on H358 cells was below 300 nM.
Turning to `C=C(F)C(=O)N1CC2(CCN(c3nc(N4CC5(CCN(C)C5)C4)nc4c(OCC(F)(F)F)c(-c5c(C)ccc6[nH]ncc56)c(C5CC5)cc34)CC2)C1` [Compound 74], in the experiment with pERK level in H358 cells, the inhibition at 1 µM was above 90%. The compound further came in with an IC50 with H358 cells below 300 nM.
The matching figures for `C=CC(=O)N1CC2(CCN(c3nc(N4CC5(CCN(CCOC)C5)C4)nc4c(OCC(F)(F)F)c(-c5c(C)ccc6[nH]ncc56)c(C5CC5)cc34)CC2)C1` [Compound 75]: above 90% and below 300 nM.
The matching figures for `C=C(F)C(=O)N1CC2(CCN(c3nc(N4CC5(CCN(CCOC)C5)C4)nc4c(OCC(F)(F)F)c(-c5c(C)ccc6[nH]ncc56)c(C5CC5)cc34)CC2)C1` [Compound 76]: above 90% and below 300 nM.
The matching figures for `C=CC(=O)N1CC2(CCN(c3nc(N4CC5(CCN(C)CC5)C4)nc4c(OCC(F)(F)F)c(-c5c(C)ccc6[nH]ncc56)c(C5CC5)cc34)CC2)C1` [Compound 77]: 50 to 90% and 300 to 1000 nM.
Consider `C=C(F)C(=O)N1CC2(CCN(c3nc(N4CC5(CCN(C)CC5)C4)nc4c(OCC(F)(F)F)c(-c5c(C)ccc6[nH]ncc56)c(C5CC5)cc34)CC2)C1` [Compound 78], for which, in the experiment with pERK level in H358 cells, the inhibition at 1 µM is 50 to 90%. The half-maximal inhibitory concentration (IC50) in the experiment with H358 cells lay within 300 to 1000 nM.
The matching figures for `C=CC(=O)N1CC2(CCN(c3nc(N4CC5(CCN(C6CC6)CC5)C4)nc4c(OCC(F)(F)F)c(-c5c(C)ccc6[nH]ncc56)c(C5CC5)cc34)CC2)C1` [Compound 79]: 50 to 90% and 300 to 1000 nM.
For `C=C(F)C(=O)N1CC2(CCN(c3nc(N4CC5(CCN(C6CC6)CC5)C4)nc4c(OCC(F)(F)F)c(-c5c(C)ccc6[nH]ncc56)c(C5CC5)cc34)CC2)C1` [Compound 80], the inhibition at 1 µM with pERK level in H358 cells is 50 to 90%. The half-maximal inhibitory concentration (IC50) in the experiment on H358 cells was 300 to 1000 nM.
Consider `C=CC(=O)N1CC2(CCN(c3nc(N4CC5(CCN(CC(C)CC)CC5)C4)nc4c(OCC(F)(F)F)c(-c5c(C)ccc6[nH]ncc56)c(C5CC5)cc34)CC2)C1` (stereo not drawn) [Compound 81], for which, in the experiment with pERK level in H358 cells, the inhibition at 1 µM was above 90%. The compound also had an IC50 with H358 cells below 300 nM.
The matching figures for `C=C(F)C(=O)N1CC2(CCN(c3nc(N4CC5(CCN(CC(C)CC)CC5)C4)nc4c(OCC(F)(F)F)c(-c5c(C)ccc6[nH]ncc56)c(C5CC5)cc34)CC2)C1` (stereo not drawn) [Compound 82]: above 90% and below 300 nM.
Turning to `C=CC(=O)N1CC2(CCN(c3nc(N4CC5(CCN(CC6CC6)CC5)C4)nc4c(OCC(F)(F)F)c(-c5c(C)ccc6[nH]ncc56)c(C5CC5)cc34)CC2)C1` [Compound 83], the inhibition at 1 µM in the experiment with pERK level in H358 cells was above 90%. The compound also registered an IC50 with H358 cells below 300 nM.
On the same counts, the results for `C=C(F)C(=O)N1CC2(CCN(c3nc(N4CC5(CCN(CC6CC6)CC5)C4)nc4c(OCC(F)(F)F)c(-c5c(C)ccc6[nH]ncc56)c(C5CC5)cc34)CC2)C1` [Compound 84] are above 90% and below 300 nM.
For `C=CC(=O)N1CC2(CCN(c3nc(N4CC5(CCN(CC(F)(F)F)CC5)C4)nc4c(OCC(F)(F)F)c(-c5c(C)ccc6[nH]ncc56)c(C5CC5)cc34)CC2)C1` [Compound 85], the inhibition at 1 µM in the experiment on pERK level in H358 cells was above 90%. For the same compound, the IC50 with H358 cells was 300 to 1000 nM.
On the same counts, the results for `C=C(F)C(=O)N1CC2(CCN(c3nc(N4CC5(CCN(CC(F)(F)F)CC5)C4)nc4c(OCC(F)(F)F)c(-c5c(C)ccc6[nH]ncc56)c(C5CC5)cc34)CC2)C1` [Compound 86] are 50 to 90% and 300 to 1000 nM.
The matching figures for `C=CC(=O)N1CC2(CCN(c3nc(N4CC5(CCN(CCC#N)CC5)C4)nc4c(OCC(F)(F)F)c(-c5c(C)ccc6[nH]ncc56)c(C5CC5)cc34)CC2)C1` [Compound 87]: above 90% and below 300 nM.
For `C=C(F)C(=O)N1CC2(CCN(c3nc(N4CC5(CCN(CCC#N)CC5)C4)nc4c(OCC(F)(F)F)c(-c5c(C)ccc6[nH]ncc56)c(C5CC5)cc34)CC2)C1` [Compound 88], the inhibition at 1 µM in the experiment on pERK level in H358 cells lay within 50 to 90%. In the experiment with H358 cells, this compound registered an IC50 of 300 to 1000 nM.
On to `C=CC(=O)N1CC2(CCN(c3nc(N4CC5(CCN(C6COC6)CC5)C4)nc4c(OCC(F)(F)F)c(-c5c(C)ccc6[nH]ncc56)c(C5CC5)cc34)CC2)C1` [Compound 89], for which, in the experiment on pERK level in H358 cells, the inhibition at 1 µM is above 90%. Further, in the experiment with H358 cells, the half-maximal inhibitory concentration (IC50) was below 300 nM.
The matching figures for `C=C(F)C(=O)N1CC2(CCN(c3nc(N4CC5(CCN(C6COC6)CC5)C4)nc4c(OCC(F)(F)F)c(-c5c(C)ccc6[nH]ncc56)c(C5CC5)cc34)CC2)C1` [Compound 90]: above 90% and below 300 nM.
On the same counts, the results for `C=CC(=O)N1CC2(CCN(c3nc(N4CC5(CCN(CCOC)CC5)C4)nc4c(OCC(F)(F)F)c(-c5c(C)ccc6[nH]ncc56)c(C5CC5)cc34)CC2)C1` [Compound 91] are above 90% and below 300 nM.
Consider `C=C(F)C(=O)N1CC2(CCN(c3nc(N4CC5(CCN(CCOC)CC5)C4)nc4c(OCC(F)(F)F)c(-c5c(C)ccc6[nH]ncc56)c(C5CC5)cc34)CC2)C1` [Compound 92], for which the inhibition at 1 µM with pERK level in H358 cells is above 90%. In addition, the IC50 in the experiment with H358 cells was below 300 nM.
On the same counts, the results for `C=CC(=O)N1CC2(CCN(c3nc(N4CC5(CCN(CCOCC)CC5)C4)nc4c(OCC(F)(F)F)c(-c5c(C)ccc6[nH]ncc56)c(C5CC5)cc34)CC2)C1` [Compound 93] are above 90% and below 300 nM.
